The subject of one assay is HCT116 (colon). Nature of the assay: In vitro cytotoxic activity (MTT) assay, HCT116. The class given is cell-based. Particulars: Homo sapiens, HCT-116; HCT116 (colon) cells, 96 hours exposure; read-out: IC50, 50% inhibition of cell proliferation. The method, then: (§1) Compounds 1-12 were screened for their in vitro cytotoxic activity utilizing a 3-(4,5-dimethyl-thiazol-2-yl)-2,5-diphenyltetrazolium bromide (MTT) assay against selected cancer human cell lines consisting of PC3 (prostate), HCT116 (colon), A375 (melanoma), H1299 (lung), MIAPaCa-2 (pancreas), HL60 (leukemia), MCF7 (breast), MDA-MB-231 (breast) (T. Mosmann, J. Immunol. Meth., 1983, 65, 55-63). The cells were cultured at 37° C. in RMPI1640 medium supplemented with 10% fetal bovine serum, 50 IU/mL penicillin, and 50 μg/mL streptomycin in a 5% CO2 incubator. All cells were sub-cultured 3 times/week by trypsinisation. Viable cells were seeded and allowed to adhere for 12 h before a test drug was added in 96-well plates at an initial density of 1.0×10^5 cells/mL. Tumour cell lines were separately exposed to various concentrations of the tested compounds followed by incubation at a temperature of 37° C. during 96 h inside a medium of fresh RMPI 1640. Cells were subsequently incubated at 37° C. using MTT at 0.5 mg/mL during 4 h. After removal of supernatant, formazan crystals were dissolved in isopropanol and the optical density was measured at 570 nm. CX-4945 was used as a positive control.

The test system of the next assay is HL60 (leukemia). Description: In vitro cytotoxic activity (MTT) assay, HL60. Type of assay: cell-based. Particulars: Homo sapiens, HL-60; HL60 (leukemia) cells, 96 hours exposure; read-out: IC50, 50% inhibition of cell proliferation. The method, then: as §1
Another assay relates to MCF7 (breast). Description: In vitro cytotoxic activity (MTT) assay, MCF7. The class given is cell-based. The conditions noted are these: Homo sapiens; MCF7 (breast) cells, 96 hours exposure; read-out: IC50, 50% inhibition of cell proliferation. The method, then:
as §1

Another assay concerns H1299 (lung). Nature of the assay: In vitro cytotoxic activity (MTT) assay, H1299. The conditions noted are these: Homo sapiens, NCI-H1299; H1299 (lung) cells, 96 hours exposure; read-out: IC50, 50% inhibition of cell proliferation. The class given is cell-based. The method, then:
as §1

The subject of the next assay is PC3 (prostate). Nature of the assay: In vitro cytotoxic activity (MTT) assay, PC3. Type of assay: cell-based. Particulars: Homo sapiens, Prostate cell; PC3 (prostate) cells, 96 hours exposure; read-out: IC50, 50% inhibition of cell proliferation. The method, then:
as §1

A further assay relates to MDA-MB-231 (breast). Description: In vitro cytotoxic activity (MTT) assay, MDA-MB-231. The class given is cell-based. Particulars: Homo sapiens; MDA-MB-231 (breast) cells, 96 hours exposure; read-out: IC50, 50% inhibition of cell proliferation. The method, then:
as §1

For the next assay, the system named is A375 (melanoma). Description: In vitro cytotoxic activity (MTT) assay, A375. Type of assay: cell-based. The conditions noted are these: Homo sapiens, A-375; A375 (melanoma) cells, 96 hours exposure; read-out: IC50, 50% inhibition of cell proliferation. The method, then:
as §1

Assay [1] concerns the target T1, recombinant human CK2 (RRββ-holoenzyme) (Homo sapiens, UniProt P68400).
T1 construct: purchased Millipore
Description: CK2 kinase assay (33P-ATP, filter plate). The class given is biochemical. The conditions noted are these: final ATP 15 μM, 10 min at 30° C.; read-out: protein kinase CK2 IC50. The method, then:
CK2 Kinase Assay was conducted using the protocol as described in Pierre F. et al; J. Med Chem. 2011, 54, 635-654. The tested compounds in aqueous solution were added at a volume of 10 μL to a reaction mixture comprising 10 μL of assay dilution buffer (ADB; 20 mM MOPS, pH 7.2, 25 mM β-glycerol phosphate, 5 mM EGTA, 1 mM sodium orthovanadate, and 1 mM dithiothreitol), 10 μL of substrate peptide (RRRDDDSDDD, dissolved in ADB at a concentration of 1 mM), 10 μL of recombinant human CK2 (RRββ-holoenzyme, 25 ng dissolved in ADB; Millipore). Reactions were initiated by the addition of 10 μL of ATP solution (90% 75 mMMgCl2, 75 μM ATP (final ATP concentration: 15 μM) dissolved in ADB; 10% [γ-33P] ATP (stock 1 mCi/100 μL; 3000 Ci/mmol (Perkin-Elmer) and maintained for 10 min at 30° C. The reactions were quenched with 100 μL of 0.75% phosphoric acid and then transferred to and filtered through a phosphor cellulose filter plate (Millipore). After washing each well five times with 0.75% phosphoric acid, the plate was dried under vacuum for 5 min and, following the addition of 15 μL of scintillation fluid to each well, the residual radioactivity was measured using a Wallac […]. The IC50 values were derived from eight concentrations of test inhibitors.

The test system of another assay is MIAPaCa-2 (pancreas). Description: In vitro cytotoxic activity (MTT) assay, MIAPaCa-2. Particulars: Homo sapiens, MIA PaCa-2; MIAPaCa-2 (pancreas) cells, 96 hours exposure; read-out: IC50, 50% inhibition of cell proliferation. Type of assay: cell-based. The method, then: as §1

T1 sequence (P68400 whole entry): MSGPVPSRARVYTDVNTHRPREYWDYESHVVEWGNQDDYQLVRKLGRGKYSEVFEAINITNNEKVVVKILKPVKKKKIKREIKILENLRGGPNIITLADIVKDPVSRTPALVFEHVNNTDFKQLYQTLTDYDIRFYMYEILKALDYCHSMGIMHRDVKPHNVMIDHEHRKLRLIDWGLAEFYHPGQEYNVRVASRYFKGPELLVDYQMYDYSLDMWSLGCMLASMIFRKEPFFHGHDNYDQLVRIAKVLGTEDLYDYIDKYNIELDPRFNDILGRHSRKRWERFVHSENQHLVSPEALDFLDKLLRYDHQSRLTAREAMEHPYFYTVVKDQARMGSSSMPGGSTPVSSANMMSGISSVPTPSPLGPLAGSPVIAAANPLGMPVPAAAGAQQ
T1 sequence (P67870 whole entry partner): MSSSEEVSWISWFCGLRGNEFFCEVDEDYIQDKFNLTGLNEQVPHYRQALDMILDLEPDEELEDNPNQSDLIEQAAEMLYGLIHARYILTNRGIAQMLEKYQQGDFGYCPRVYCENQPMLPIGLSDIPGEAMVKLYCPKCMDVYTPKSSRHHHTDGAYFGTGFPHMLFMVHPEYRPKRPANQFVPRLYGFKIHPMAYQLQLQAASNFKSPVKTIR

Regarding `Clc1ccc(Nc2c3ccncc3nc3c2[nH]c2cnccc23)cc1` [Compound 1, N-(4-chlorophenyl)-11H-pyrido[4′,3′:4,5]pyrrolo[3,2-b][1,7]naphthyridin-10-amine], the IC50 with HCT116 (colon) was found to be 1500 nM; in the assay on HL60 (leukemia) it was 3100 nM; in the assay on MCF7 (breast), 8500 nM; with H1299 (lung), 2400 nM; in the assay with PC3 (prostate), 1300 nM; in the assay on MDA-MB-231 (breast), 5200 nM. Further, the values for the IC50 (in the assay on A375 (melanoma); in assay [1]; in the assay with MIAPaCa-2 (pancreas)) were 3400 nM, 5 nM and 1600 nM, respectively.
